According to patent EP0802730B1, “PESTICIDAL COMPOUNDS” (BTG INTERNATIONAL LIMITED, priority 1995, dated 1996):
≈ marks a conversion by molar mass, not a printed value. Like-named read-outs stand apart in the source and are kept apart here. Marks after values point to notes of the source that are not given here.

Legend:
Format in all cases: in vivo
[1] = system: Mustard beetles (PC) (Phaedon cochleariae Fab); conditions: for PC LD50 (µg/insect): Tables 10, 13, 14
Description: A one microlitre drop of an acetone solution of the test compound was applied ventrally to adult mustard beetles using a micro drop applicator. The treated insects were maintained for 48 hours after which time kill was assessed. Two replicates each of 20 to 25 mustard beetles were used at each dose level and 5 dose levels were treated comparably. LD50 values were calculated as for houseflies.

[2] = system: Mites (TU) (Tetranychus urticae), susceptible strain (GSS); assay: Mite immersion test, susceptible strain GSS
Description: 25 adult female mites were immersed in 35 µl of a solution of the test compound in a 1:4 acetone-water mixture for 30 seconds. The treated insects were maintained at 21° ± 2°C and kill was assessed 72 hours after treatment. […] Three replicates of 25 mites each were used at each dose rate and 5 or 6 dose rates were used per compound under test. LC50 values were calculated in ppm of the solution of the test compound per insect. The test was carried out using a susceptible strain of mites (GSS) supplied by Schering, AG, Berlin.

[3] = system: Whitefly (BT) (Bemisia tabaci), susceptible strain (SUD-S); assay: Whitefly residual film vial test, susceptible strain SUD-S
Description: Acetone solutions (0.100 ml) of the test compounds were placed in 10 ml glass vials and evaporated with rotation to deposit a film of the compound. Thirty adult whiteflies were placed inside the vial, then after 60 minutes, the treated insects were transferred onto untreated cotton leaf discs which were kept moist on a bed of agar gel. The temperature was maintained at 25°C and mortality assessed after 48 hours. Three replicates were used at each of 5 to 7 dose levels per compound.

[4] = system: Houseflies (MD) (Musca domestica); conditions: for MD LD50 (µg/insect): Tables 10, 13, 14, NA = lack of detectable activity
Description: Female flies were treated on the thorax with a one microlitre drop of test compound dissolved in acetone. Two replicates of 15 flies were used at each dose rate and 6 dose rates were used per compound under test. After treatment, the flies were maintained at a temperature of 20° ± 1°C and kill was assessed 24 and 48 hours after treatment. LD50 values were calculated in micrograms of test compound per fly (see Sawicki et al., Bulletin of the World Health Organisation, 35, 893 (1966) and Sawicki et al., Entomologia and Exp. Appli 10, 253, (1967).

[5] = system: Myzus persicae, susceptible strain (US1L); assay: Aphid dip test, susceptible strain; conditions: read-out: MP % kill 100 ppm
Description: Activity against resistant (R) and susceptible (S) strains of aphid (Myzus persicae) was assessed using the following method.
Entrapment rings of fluon were painted halfway up the inside of 4 cm lengths of glass tubing (1.5 cm diameter), and squares of insect-proof gauze were attached to one end of each tube by elastic bands. Fifteen apterous adults were then gently transferred into the tubes using a sable-hair brush, and the tube sealed with a second gauze square.
Tubes containing aphids were dipped into insecticide solutions for 10 seconds, dried on blotting paper, and then inverted and tapped to cause treated aphids to fall to the unimmersed end of each tube. Handling mortality (usually zero or very slight) was scored after 1 hour, when aphids were transferred onto chinese cabbage leaf-discs (35 mm diameter) on an agar bed (25 mm in depth) in disposible plastic containers (30 mm high) and confined by applying a ring of fluon to the exposed lip of the container. Containers were store upright, without lids, in a constant environment facility maintained at 25°C under continuous room lighting. Mortality was assessed at 24, 48 and 72 hours. Two replicates of 15 aphids each were used at each dose rate and 5 or 6 dose rates were used per compound under test.
The test was carried out using a susceptible strain of aphids (US1L) collected in the field in East Anglia, UK and an extremely resistant strain of aphids (794Jz) (R3 esterase, sensitive AChE) collected from glasshouses in the UK.
The values given are % mortality corrected for control data. The control comprised the test solution without active ingredient.

[6] = NA = lack of detectable activity
[7] = 72 h, Tables 10, 13, 14, susceptible strain, NA = lack of detectable activity, read-out: TU LC50 (ppm/insect)
[8] = 48 h, Tables 10, 13, 14, susceptible strain, NA = lack of detectable activity, read-out: BT LC50 (ppm/insect)
[9] = topical 1 µl drop in acetone on female flies, kill assessed 24 and 48 hours
[10] = 1 µl acetone drop applied ventrally to adults, kill at 48 hours, NA = lack of detectable activity
[11] = ppm solution of test compound, 30 seconds immersion, kill at 72 hours, read-out: TU(GSS) (LC50)
[12] = ppm solution of test compound, 60 minutes film exposure, mortality after 48 hours, read-out: BT(SUD-S) (LC50)

Structure (SMILES): CCCC1=C(O)C(=O)c2ccccc2C1=O [-(CH2)2CH3, reference compound]
- PC LD50 (µg/insect) [1, 6]: c10 µg/insect
- LC50 [2, 7]: ~1000 µg/mL (≈ 4620 µM)
- LC50 [3, 8]: 80 µg/mL (≈ 370 µM)

Structure (SMILES): CCCCC1=C(O)C(=O)c2ccccc2C1=O [-(CH2)3CH3, reference compound]
- MD LD50 (µg/insect) [4]: c10 µg/insect
- PC LD50 (µg/insect) [1, 6]: c5 µg/insect
- LC50 [2, 7]: 65 µg/mL (≈ 282 µM)
- LC50 [3, 8]: 13 µg/mL (≈ 56.5 µM)

Structure (SMILES): CCCCCC1=C(O)C(=O)c2ccccc2C1=O [-(CH2)4CH3, reference compound]
- PC LD50 (µg/insect) [1, 6]: c7 µg/insect
- LC50 [2, 7]: 16 µg/mL (≈ 65.5 µM)
- LC50 [3, 8]: 17 µg/mL (≈ 69.6 µM)

Structure (SMILES): CCCCCCCCC1=C(O)C(=O)c2ccccc2C1=O [-(CH2)7CH3, reference compound]
- MD LD50 (µg/insect) [4]: 1.9 µg/insect
- PC LD50 (µg/insect) [1, 6]: 0.78 µg/insect
- LC50 [2, 7]: ~1000 µg/mL (≈ 3490 µM)
- LC50 [3, 8]: 19 µg/mL (≈ 66.3 µM)

Structure (SMILES): CCCCCCCCCCC1=C(O)C(=O)c2ccccc2C1=O [-(CH2)9CH3, reference compound]
- PC LD50 (µg/insect) [1, 6]: 1.9 µg/insect
- LC50 [2, 7]: 5.5 µg/mL (≈ 17.5 µM)
- LC50 [3, 8]: > 100 µg/mL

Structure (SMILES): CCCCCCCCCCCC1=C(O)C(=O)c2ccccc2C1=O [-(CH2)10CH3, reference compound]
- PC LD50 (µg/insect) [1, 6]: c0.4 µg/insect
- LC50 [2, 7]: 1.4 µg/mL (≈ 4.26 µM)
- LC50 [3, 8]: > 100 µg/mL

Structure (SMILES): CCCCCCCCCCCCC1=C(O)C(=O)c2ccccc2C1=O [-(CH2)11CH3, reference compound]
- LC50 [2, 7]: < 60 µg/mL
- LC50 [3, 8]: > 100 µg/mL
- mortality at 100 ppm [5]: 0%

Structure (SMILES): CCCCCCCCCCCCCCC1=C(O)C(=O)c2ccccc2C1=O [-(CH2)13CH3, reference compound]
- LC50 [2, 7]: 1.3 µg/mL (≈ 3.51 µM)

Structure (SMILES): CC(C)(C)C1CCC(C2=C(O)C(=O)c3ccccc3C2=O)CC1 (stereo not shown) [Compound B, 2-hydroxy-3-(4-t-butylcyclohexyl)-naphthalene-1,4-dione, reference compound]
- MD (LD50) ([4]; house fly, in vivo): 15.5
- PC (LD50) ([1]; mustard beetle, in vivo, 2880 min): 0.53
- LC50 ([2]; 72 h, text b201, no unit printed there, read-out: TU (GSS) LC50): 44 µg/mL (≈ 141 µM)
- LC50 ([3]; 48 h, text b201, no unit printed there, read-out: BT(SUD-S) LC50): 18 µg/mL (≈ 57.6 µM)

Structure (SMILES): C=CC(C)(C)C1=C(OC(=O)CC)C(=O)c2ccccc2C1=O [Example 4]
- MD (LD50) [4, 9]: 8.2 µg/insect
- PC (LD50) [1, 10]: 3.9 µg/insect
- LC50 [2, 11]: 18 µg/mL (≈ 60.3 µM)
- LC50 [3, 12]: 5.3 µg/mL (≈ 17.8 µM)

Structure (SMILES): C=CC(C)(C)C1=C(OC(=O)CCCC)C(=O)c2ccccc2C1=O [Example 6]
- MD (LD50) [4, 9]: c. 2.0 µg/insect
- PC (LD50) [1, 10]: 2.1 µg/insect
- LC50 [2, 11]: 27 µg/mL (≈ 82.7 µM)
- LC50 [3, 12]: 16 µg/mL (≈ 49 µM)

Structure (SMILES): C=CC(C)(C)C1=C(OC(=O)CCCCC)C(=O)c2ccccc2C1=O [Example 7]
- MD (LD50) [4, 9]: > 20 µg/insect
- PC (LD50) [1, 10]: c. 6.0 µg/insect
- LC50 [2, 11]: 53 µg/mL (≈ 156 µM)
- LC50 [3, 12]: < 100 µg/mL

Structure (SMILES): C=CC(C)(C)C1=C(OC(=O)CF)C(=O)c2ccccc2C1=O [Example 9]
- PC (LD50) [1, 10]: 0.41 µg/insect
- LC50 ([2]; 72 h, read-out: TU(GSS) (LC50)): 140 µg/mL (≈ 463 µM)
- LC50 ([3]; 48 h, read-out: BT(SUD-S) (LC50)): 13.4 µg/mL (≈ 44.3 µM)

Structure (SMILES): C=CC(C)(C)C1=C(OC(=O)C(C)C)C(=O)c2ccccc2C1=O [Example 10]
- MD (LD50) [4, 9]: > 20 µg/insect
- PC (LD50) [1, 10]: c. 6.0 µg/insect
- LC50 [2, 11]: 15 µg/mL (≈ 48 µM)
- LC50 [3, 12]: 35 µg/mL (≈ 112 µM)

Structure (SMILES): C=CC(C)(C)C1=C(OC(=O)c2ccccc2)C(=O)c2ccccc2C1=O [Example 11]
- LC50 [2, 11]: ~50 µg/mL (≈ 144 µM)

Structure (SMILES): C=CC(C)(C)C1=C(OC)C(=O)c2ccccc2C1=O [Example 12, 2-(1,1-dimethylprop-2-enyl)-3-methoxy-naphthalene-1,4-dione]
- MD (LD50) [4, 9]: > 20 µg/insect
- PC (LD50) [1, 10]: c. 12.0 µg/insect

Structure (SMILES): C=CC(C)(C)C1=C(O)C(OC)(OC)c2ccccc2C1=O [Example 14, 1,1-dimethoxy-2-hydroxy-3-(1,1-dimethylprop-2-enyl)-naphthalene-4-one]
- MD (LD50) [4, 9]: c. 2.5 µg/insect
- PC (LD50) [1, 10]: c. 6.0 µg/insect
- LC50 [2, 11]: ~800 µg/mL (≈ 2770 µM)

Structure (SMILES): C=CC(C)(C)C1=C(O)C(=NOC)c2ccccc2C1=O [Example 15]
- PC % Kill at 20 µg/insect ([1]; mustard beetle, in vivo, topical or ocular, 48 h): 35% *
- mortality at 1000 ppm ([3]; 48 h, read-out: BT(SUD-S) % Kill at 1000 ppm solution of test compound): 97%

Structure (SMILES): CCCC(C)(C)C1=C(O)C(=O)c2ccccc2C1=O [Example 16]
- MD (LD50) [4, 9]: 8.8 µg/insect
- PC (LD50) [1, 10]: c. 10 µg/insect
- LC50 [2, 11]: 91 µg/mL (≈ 352 µM)
- LC50 [3, 12]: 10 µg/mL (≈ 38.7 µM)

Structure (SMILES): CCCC(C)(C)C1=C(OC(=O)CC)C(=O)c2ccccc2C1=O [Example 17]
- MD (LD50) [4, 9]: 14 µg/insect
- LC50 [2, 11]: 50 µg/mL (≈ 159 µM)

Structure (SMILES): CCCCCC(C)(C)C1=C(O)C(=O)c2ccccc2C1=O [Example 18]
- MD (LD50) [4, 9]: 13 µg/insect
- PC (LD50) [1, 10]: c. 15 µg/insect
- LC50 [2, 11]: ~100 µg/mL (≈ 349 µM)
- LC50 [3, 12]: 10 µg/mL (≈ 34.9 µM)

Structure (SMILES): CC1(C2=C(O)C(=O)c3ccccc3C2=O)CCCC1 [Example 24, 2-hydroxy-3-(1'-methylcyclopentyl)-naphthalene-1,4-dione]
- LC50 [2, 7]: 48 µg/mL (≈ 187 µM)
- LC50 [3, 8]: 33 µg/mL (≈ 129 µM)
- mortality at 100 ppm [5]: 44%

Structure (SMILES): CCC1(C2=C(O)C(=O)c3ccccc3C2=O)CCCCC1 [Example 26, 2-(1'-ethylcyclohexyl)-3-hydroxy-naphthalene-1,4-dione]
- MD LD50 (µg/insect) [4]: 13 µg/insect
- PC LD50 (µg/insect) [1, 6]: 2.9 µg/insect
- LC50 [2, 7]: > 100 µg/mL
- LC50 [3, 8]: 2.9 µg/mL (≈ 10.2 µM)

Structure (SMILES): C=CC1(C2=C(O)C(=O)c3ccccc3C2=O)CCCCC1 [Example 27, 2-(1'-ethenecyclohexyl)-3-hydroxy-naphthalene-1,4-dione]
- MD LD50 (µg/insect) [4]: 6.0 µg/insect
- PC LD50 (µg/insect) [1, 6]: 4.7 µg/insect
- LC50 [2, 7]: ~80 µg/mL (≈ 283 µM)
- LC50 [3, 8]: 0.9 µg/mL (≈ 3.19 µM)

Structure (SMILES): C=CC1(C2=C(O)C(=O)c3ccccc3C2=O)CCCC1 [Example 30]
- MD LD50 (µg/insect) [4]: 15 µg/insect
- PC LD50 (µg/insect) [1, 6]: <20 µg/insect
- LC50 [2, 7]: 6 µg/mL (≈ 22.4 µM)
- LC50 [3, 8]: ~50 µg/mL (≈ 186 µM)

Structure (SMILES): CC(C)(C)CC1=C(O)C(=O)c2ccccc2C1=O [Example 35, 2-(2,2-dimethylpropyl)-3-hydroxy-naphthalene-1,4-dione]
- MD LD50 (µg/insect) [4]: 1.2 µg/insect
- PC LD50 (µg/insect) [1, 6]: 4.6 µg/insect
- LC50 [3, 8]: ~12 µg/mL (≈ 49.1 µM)

Structure (SMILES): CC(C)(C)C=CC1=C(O)C(=O)c2ccccc2C1=O [Example 42, 2-(3,3-dimethyl-but-1-enyl)-3-hydroxy-naphthalene-1,4-dione]
- PC LD50 (µg/insect) [1, 6]: 3.6 µg/insect
- LC50 [2, 7]: ~100 µg/mL (≈ 390 µM)
- LC50 [3, 8]: 17 µg/mL (≈ 66.3 µM)

Structure (SMILES): C=CC(C)(C)CCC1=C(O)C(=O)c2ccccc2C1=O [Example 50]
- LC50 [2, 7]: 6.5 µg/mL (≈ 24 µM)
- LC50 [3, 8]: 16 µg/mL (≈ 59.2 µM)
